# Reference: US12213970B2, “Pyridinyl sulfonamide derivatives, pharmaceutical compositions and uses thereof” (Boehringer Ingelheim International GmbH, priority 2018, dated 2025)
# pIC50: −log10 of the molar value. Counter-ions that a name gives are not always drawn. Like-named read-outs stand apart in the source and are kept apart here.
# Legend:
# AOC1 = molecular target: T1, AOC1 (Homo sapiens, UniProt P19801); assay: AOC1 biochemical assay (Amplex Red)
# T1 construct: purchased R&D Systems 8297-AO-010
# T1 sequence (P19801 20-751): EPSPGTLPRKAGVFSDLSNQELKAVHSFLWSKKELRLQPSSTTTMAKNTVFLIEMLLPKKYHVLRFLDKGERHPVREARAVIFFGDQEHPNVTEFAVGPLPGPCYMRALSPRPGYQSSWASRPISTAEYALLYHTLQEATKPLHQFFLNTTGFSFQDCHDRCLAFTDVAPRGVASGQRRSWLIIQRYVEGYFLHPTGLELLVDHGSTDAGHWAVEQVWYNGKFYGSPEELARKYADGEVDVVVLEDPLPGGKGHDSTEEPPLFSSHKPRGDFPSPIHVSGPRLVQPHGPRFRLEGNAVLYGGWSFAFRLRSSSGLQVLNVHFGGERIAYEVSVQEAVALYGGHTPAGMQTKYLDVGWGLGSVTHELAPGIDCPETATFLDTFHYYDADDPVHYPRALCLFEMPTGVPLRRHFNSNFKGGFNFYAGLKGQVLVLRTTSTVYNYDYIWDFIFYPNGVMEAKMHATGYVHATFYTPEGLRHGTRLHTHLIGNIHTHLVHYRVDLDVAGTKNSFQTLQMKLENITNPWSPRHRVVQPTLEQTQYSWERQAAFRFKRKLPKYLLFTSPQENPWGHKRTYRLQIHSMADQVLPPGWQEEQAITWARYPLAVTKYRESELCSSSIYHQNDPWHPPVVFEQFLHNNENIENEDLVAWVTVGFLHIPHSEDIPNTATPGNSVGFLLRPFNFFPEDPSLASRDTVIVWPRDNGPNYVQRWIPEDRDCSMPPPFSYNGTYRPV
# Experimental: The Amplex® Red Assay (available from Thermo Fisher Scientific) provides a sensitive method for the detection of H2O2 generated during enzymatic reactions like the amine oxidation catalyzed by AOC1. The assay reagent is a colorless substrate (N-acetyl-3,7-dihydroxyphenoxazine) that reacts in a 1:1 stoichiometry with hydrogen peroxide (H2O2) to produce the fluorescent dye resorufin (7-hydroxyphenoxazin-3-one, excitation/emission maxima=570/585 nm).
# An aliquot of 3 μL of the compound dilution is added to a 384 well plate (Optiplate, PS, flat bottom F, black, PERKIN ELMER, #6007270) in a DMSO concentration of 6.6%.
# An AOC1 enzyme aliquot (#8297-AO-010, R&D Systems) is thawed on ice, diluted in reaction buffer and added in a volume of 7 μL to the wells to give a final assay concentration of 1 ng/well. After incubation of inhibitor and enzyme for 30 minutes at 37° C., the enzymatic reaction is started with the addition of 10 μL of Amplex® Red reaction mix (final assay concentration: 100 mM sodiumphosphate, 120 μM Amplex® Red reagent (#A22177 Molecular Probes), 1.5 U/mL Horseradish Peroxidase (#P8375 Sigma-Aldrich), 200 μM putrescine (#P7505 Sigma-Alrdich), 0.05% Pluronic F-127 (#P3000MP Sigma-Aldrich), pH 7.4, 37° C.).
# After an incubation for 30 minutes at 37° C. the turnover of the substrate is determined directly (or after the addition of an excess of an amine-oxidase inhibitor) with a fluorescence reader (Ex 540 nm/Em 590 nm) like Envision 2104 Multilabel Reader (PERKIN ELMER).
# MAO-A = molecular target: T2, MAO-A (Homo sapiens, UniProt P21397); assay: MAO-A biochemical assay (MAO-Glo)
# T2 construct: purchased Sigma-Aldrich M7316
# T2 sequence (P21397 1-527): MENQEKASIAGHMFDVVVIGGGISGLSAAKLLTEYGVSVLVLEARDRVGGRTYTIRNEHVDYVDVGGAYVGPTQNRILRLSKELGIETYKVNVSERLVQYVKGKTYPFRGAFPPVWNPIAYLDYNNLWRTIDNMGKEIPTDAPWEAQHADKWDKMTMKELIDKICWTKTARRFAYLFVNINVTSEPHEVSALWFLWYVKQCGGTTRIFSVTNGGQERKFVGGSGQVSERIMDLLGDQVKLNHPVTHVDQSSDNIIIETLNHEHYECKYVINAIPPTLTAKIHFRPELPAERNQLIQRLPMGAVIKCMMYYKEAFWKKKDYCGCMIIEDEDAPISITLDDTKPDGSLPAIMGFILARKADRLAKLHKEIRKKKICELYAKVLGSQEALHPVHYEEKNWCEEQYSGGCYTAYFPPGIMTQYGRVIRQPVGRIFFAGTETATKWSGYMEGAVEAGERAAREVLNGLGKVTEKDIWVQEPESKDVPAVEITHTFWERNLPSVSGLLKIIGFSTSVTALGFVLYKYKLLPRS
# Source text: The MAO-Glo™ Assay (commercially available from PROMEGA, #V1402) provides a sensitive method for the measurement of monoamine oxidase (MAO) activity (Valley, M. P. et al., 2006, Anal. Biochem. 359: 238-246) from a variety of tissues, biofluids or recombinant expressed or purified enzymes. As substrate a derivate of the beetle luciferin ((4S)-4,5-dihydro-2-(6-hydroxybenzothiazolyl)-4-thiazole-carboxylic acid) is used, which is oxidized at a primary amine moiety. After a spontaneous elimination and a catalyzed esterase reaction, the turnover of luciferin by the luciferase is recorded as a signal of MAO-A activity.
# An aliquot of 3 μL of the compound dilution is added to a 384 well plate (Optiplate, PS, flat bottom F, black, PERKIN ELMER, #6007270) in a DMSO concentration of 1.025%.
# A MAO-A enzyme aliquot (M7316, Sigma-Aldrich) is thawed on ice, diluted in reaction buffer to 1.25 mU/μL and added in a volume of 5 μL to the wells. After incubation for 20 minutes at 37° C., 2 μL of MAO substrate (dissolved in DMSO at 16 mM, diluted to 20 μM in assay buffer to obtain a final assay concentration of 4 μM) is added, mixed, and the mixture further incubated for 60 minutes at 37° C.
# The turnover of the substrate is determined by the addition of 10 μL of the Detection Reagent mix which was generated by the addition of reconstitution buffer with esterase (PROMEGA, #V1402) to the luciferin detection reagent (PROMEGA, #V1402). After an incubation period of 20 minutes at 37° C., the luminescent signal is measured with a […], e.g. Envision 2104 Multilabel Reader (PERKIN ELMER).
compound,measurement,setting,value
NC/C(=C/F)COc1ccc(S(=O)(=O)N2CCCCC2)cn1 [Example 38],pIC50,AOC1; read-out: AOC1 IC50,6.63
same,pIC50,"MAO-A; IC50, read-out: MAO-A",4.49
CNC(=O)[C@@H]1[C@@H]2CN(S(=O)(=O)c3ccc(OC/C(=C\F)CN)nc3)C[C@@H]21 [Example 5],pIC50,AOC1; read-out: AOC1 IC50,5.91
same,pIC50,"MAO-A; IC50, read-out: MAO-A",< 4.30
CNC(=O)[C@@]12C[C@@H]1CN(S(=O)(=O)c1ccc(OC/C(=C\F)CN)nc1)C2 [Example 29],pIC50,AOC1; read-out: AOC1 IC50,5.86
same,pIC50,"MAO-A; IC50, read-out: MAO-A",< 4.30
"CN(C)S(=O)(=O)c1ccc(OC/C(=C\F)CN)cc1 [Compound 10 of WO 2013/163675, reference compound]",pIC50,"AOC1; comparison table, read-out: IC50 AOC1",6.02
same,pIC50,MAO-A; read-out: IC50 MAO-A,5.13
CC1(C(=O)NC2CC2)CCN(S(=O)(=O)c2ccc(OC/C(=C\F)CN)nc2)CC1 [Example 56],pIC50,AOC1; read-out: AOC1 IC50,4.94
same,pIC50,"MAO-A; IC50, read-out: MAO-A",< 4.30
CNC(=O)[C@H]1[C@@H]2CN(S(=O)(=O)c3ccc(OC/C(=C\F)CN)nc3)C[C@@H]21 [Example 27],pIC50,AOC1; read-out: AOC1 IC50,5.90
same,pIC50,"MAO-A; IC50, read-out: MAO-A",< 4.30
NC/C(=C/F)COc1ccc(S(=O)(=O)N2CCC(C(=O)N3CCOCC3)CC2)cn1 [Example 3],pIC50,AOC1; read-out: AOC1 IC50,4.79
same,pIC50,"MAO-A; IC50, read-out: MAO-A",< 4.30
CC(=O)N[C@H]1CCCN(S(=O)(=O)c2ccc(OC/C(=C\F)CN)nc2)C1 [Example 6],pIC50,AOC1; read-out: AOC1 IC50,6.17
same,pIC50,"MAO-A; IC50, read-out: MAO-A",< 4.30
CC1(C(=O)NCCF)CCN(S(=O)(=O)c2ccc(OC/C(=C\F)CN)nc2)CC1 [Example 53],pIC50,AOC1; read-out: AOC1 IC50,4.84
same,pIC50,"MAO-A; IC50, read-out: MAO-A",< 4.30
CC(=O)NCC1CCN(S(=O)(=O)c2ccc(OC/C(=C\F)CN)nc2)CC1 [Example 28],pIC50,AOC1; read-out: AOC1 IC50,5.43
same,pIC50,"MAO-A; IC50, read-out: MAO-A",< 4.30
NC/C(=C/F)COc1ccc(S(=O)(=O)N2CCC(C(=O)O)CC2)cn1 [Example 46],pIC50,AOC1; read-out: AOC1 IC50,< 4.30
same,pIC50,"MAO-A; IC50, read-out: MAO-A",< 4.30
NC/C(=C/F)COc1ccc(S(=O)(=O)N2CC[C@@H](C(N)=O)C2)cn1 [Example 31],pIC50,AOC1; read-out: AOC1 IC50,6.06
same,pIC50,"MAO-A; IC50, read-out: MAO-A",< 4.30
"CNC(=O)C1CCN(S(=O)(=O)c2ccc(OC/C(=C\F)CN)nc2)CC1 [Example 37, trifluoroacetate]",pIC50,AOC1; read-out: AOC1 IC50,5.01
same,pIC50,"MAO-A; IC50, read-out: MAO-A",< 4.30
CC(C)(O)CNC(=O)[C@H]1CCN(S(=O)(=O)c2ccc(OC/C(=C\F)CN)nc2)C1 [Example 2],pIC50,AOC1; read-out: AOC1 IC50,5.09
same,pIC50,"MAO-A; IC50, read-out: MAO-A",< 4.30
"NC/C(=C/F)COc1ccc(S(=O)(=O)N2CCC(CC(=O)O)CC2)cn1 [Example 44, trifluoroacetate]",pIC50,AOC1; read-out: AOC1 IC50,< 4.30
same,pIC50,"MAO-A; IC50, read-out: MAO-A",< 4.30
CCNC(=O)C1CCN(S(=O)(=O)c2ccc(OC/C(=C\F)CN)nc2)CC1 [Example 15],pIC50,AOC1; read-out: AOC1 IC50,5.33
same,pIC50,"MAO-A; IC50, read-out: MAO-A",< 4.30
NC/C(=C/F)COc1ccc(S(=O)(=O)N2CCC[C@@H]2C(N)=O)cn1 [Example 18],pIC50,AOC1; read-out: AOC1 IC50,5.91
same,pIC50,"MAO-A; IC50, read-out: MAO-A",< 4.30
CC1(C(N)=O)CCN(S(=O)(=O)c2ccc(OC/C(=C\F)CN)nc2)CC1 [Example 49],pIC50,AOC1; read-out: AOC1 IC50,6.26
same,pIC50,"MAO-A; IC50, read-out: MAO-A",< 4.30
